According to EP1094711B1, “METHODS FOR ERADICATION OF NANOBACTERIA” (Nanobac Oy, priority 1998, dated 2000):
pIC50: −log10 of the molar value. Converted amounts (≈) assume the structure as drawn. Read-outs that look alike come from different tables or passages of the source.

Experiments:
Format in all cases: cell-based
nanobacteria [1] = experiment: Antibiotic sensitivity test by Minimal Inhibition Concentration (MIC), 96-well plates, absorbance at 650 nm; settings: for antinanobacterial effect in the in vitro test (in words): in vitro MIC test; for IC50 / IC90: light or radiation study, 288 h; for IC90: 90% inhibition, read-out: MIC 90
Method: Antibiotic sensitivity tests were carried out by measuring Minimal Inhibition Concentration (MIC), a common practice in clinical microbiology.
The tests were performed in 96-well plates. DMEM (commercial cell culture medium) containing 10% gamma-irradiated fetal bovine serum (FBS)(dose about 3 Mrads; this treatment inactivates nanobacteria in the serum so that the basic medium is sterile) was used as the basic culture medium. These components are commercially available, e.g., from Gibco. The antibiotic stock solutions were sterile filtered through 0.2 micrometer filters. The stock solutions were then serially diluted (into the basal culture medium) to provide a final starting concentration of 0.5 mg/ml and 1:2 dilutions therefrom, unless otherwise specified. For each antibiotic three parallel tests were performed using all the antibiotic dilutions and, additionally, positive and negative control experiments. […] 100 µl of dilutions of the nanobacteria inoculum were added to all wells except the negative controls. The plates were incubated at mammalian cell culture conditions (37° Celsius, 5% carbon dioxide, 95% humid air). The absorbance values at 650 nm were recorded by using an ELISA reader at the start, and at 4, 8, 12, 14 days. […] Calculations were based on absorbance curves where absorbance was plotted against concentration of the antibiotic.

nanobacteria [2] = experiment: Nanobacterial growth and biofilm formation on stents with metal ions in the culture medium; settings: salts added to the culture medium
Excerpt: Nanobacteria also absorb some heavy metals. Nanobacteria can be stained well with silver or copper compounds. […] Silver and copper parts or platings on surfaces, such as catheters or stents, can provide an antinanobacterial effect by preventing nanobacterial biofilm formation. In in vitro tests nanobacteria avidly formed biofilm on two different commercial stents made of a plastic type of material. This biofilm formation was prevented by the addition of silver or copper salts to the culture medium.

SF-nanobacteria = experiment: Chemical disinfection of SF-nanobacteria; parameters: key to Resistance of SF-nanobacteria to chemical disinfectants (survival) / partial or total detachment on exposure: +++: No effect; ++: Reduced survival; +: Markedly reduced survival; - : No survival; * = partial or total detachment on exposure; settings: room temperature, survival after subculture compared to diluent only
Excerpt: The cultures were exposed to the disinfectants after removal of the culture medium. For the autoclaving, UV, microwave, and drying treatments, the medium was removed and an equal amount of PBS used instead. For the heat treatments, the SF-nanobacteria were harvested by scraping the culture vessel followed by centrifugation of the medium. The obtained pellet was suspended in PBS and used in the test. After treatments the SF-nanobacteria were subcultured in DMEM medium and the growth followed by light microscopy to see the adherence and typical mineralization.
The concentrations of the chemicals used were those commonly used for disinfection or as instructed by the manufacturer. The chemicals included 70% ethanol, 2% glutaraldehyde, 4% formaldehyde, 0.5% hypochlorite, 3% hydrogen peroxide, 1M hydrochloric acid (HCl), 1M sodium hydroxide (NaOH) , 1% sodium dodecyl sulfate (SDS), 1% Tween 80, 1 % Triton X-100, 3M guanidium-hydrochloride, 3M urea, 1% Virkon® (Antec International Ltd., Suffolk, England; 100% product contains 50% potassium persulfate, 5% sulfaminoic acid), 1.5% Erifenol® (Orion OY, Finland; 100% product contains <5% NaOH, <5% o-benzyl-p-chlorophenol, 5-15% p-chloro-m-cresol), 1% Klorilli® (Orion OY, Finland; 100% product contains sodium metasilicate, sodium N-chloro-p-toluenesulfonamide-3-hydrate and 20,000 ppm active chlorine), and 3% Buraton® (Schülke & Mayr, Germany; 100% product contains 4.5% formaldehyde, 6.8% glyoxal, 1.5% glyoxylic acid, 6% dimethylaurylbenzyl-ammonium chloride). The dilutions to be used were freshly prepared on the day of exposure in sterile distilled water. As a positive control, only diluent was used. Negative control contained only culture medium.
The SF-nanobacteria were exposed to the chemicals for 10 and 30 minutes at room temperature after removal of the culture medium. After exposure, the disinfectant solution was removed and fresh medium added (with a neutralization step in the case of HCl and NaOH). If any significant deattachment occurred, nanobacteria were recovered by centrifugation, and subcultured. The exposed serum-free cultures were passaged 1:10 after 48 hours and the growth was followed by light microscopy for three weeks.

[3] = short chain organic acids tested later in culture tests, read-out: MIC50 values
[4] = 12 day time point, DMEM with 10% gamma-irradiated FBS

Compound	IC50 (nanobacteria [1]; read-out: MIC 50) [µg/mL]	Resistance of SF-nanobacteria to chemical disinfectants (survival) (SF-nanobacteria; Exposure time 10 min)	Resistance of SF-nanobacteria to chemical disinfectants (survival) (SF-nanobacteria; Exposure time 30 min)	further results
Vitamin D				pIC50 (nanobacteria [1]; 50% inhibition, 12 day time point, read-out: MIC 50): < 4.60; antinanobacterial effect in the in vitro test (in words) (nanobacteria [1]): very weak inhibitory effect
CC[C@H]1OC(=O)[C@H](C)[C@@H](O[C@H]2C[C@@](C)(OC)[C@@H](O)[C@H](C)O2)[C@H](C)[C@@H](O[C@@H]2O[C@H](C)C[C@H](N(C)C)[C@H]2O)[C@](C)(OC)C[C@@H](C)C(=O)[C@H](C)[C@@H](O)[C@]1(C)O [Clarithromycin]	> 500			
[Cu] [copper]				biofilm formation on commercial stents (nanobacteria [2]): prevented
hypochlorite [0.5% hypochlorite]		+++	+++	
CC(O)C(=O)O (centres unmarked) [lactic acid]				pIC50 (nanobacteria [1]; [3]): 1.30 to 2.00
NC(N)=O [3M Urea, urea]		+++	+++	
CN[C@H](CC(C)C)C(=O)N[C@H]1C(=O)N[C@@H](CC(N)=O)C(=O)N[C@H]2C(=O)N[C@H]3C(=O)N[C@H](C(=O)N[C@H](C(=O)O)c4cc(O)cc(O)c4-c4cc3ccc4O)[C@H](O)c3ccc(c(Cl)c3)Oc3cc2cc(c3O[C@@H]2O[C@H](CO)[C@@H](O)[C@H](O)[C@H]2O[C@H]2C[C@](C)(N)[C@H](O)[C@H](C)O2)Oc2ccc(cc2Cl)[C@H]1O [Vancomycin]	130			antinanobacterial effect in the in vitro test (in words) (nanobacteria [1]): effective bacteriostat; IC90 (nanobacteria [1]; [4]): 250 µg/mL (≈ 173 µM)
[H]/N=C(/N)N[C@H]1[C@H](O)[C@@H](O)[C@H](O[C@@H]2O[C@@H](C)[C@](O)(C=O)[C@H]2O[C@@H]2O[C@@H](CO)[C@H](O)[C@@H](O)[C@@H]2NC)[C@@H](N/C(N)=N\[H])[C@@H]1O [Streptomycin]	> 500			antinanobacterial effect in the in vitro test (in words) (nanobacteria [1]): bacteriostatic effects at high antibiotic concentrations
COc1cc(Cc2cnc(N)nc2N)cc(OC)c1OC [Trimethoprim]	0.7			antinanobacterial effect in the in vitro test (in words) (nanobacteria [1]): bacteriostatic; IC90 (nanobacteria [1]; [4]): 5 µg/mL (≈ 17.2 µM)
CC1(C)S[C@@H]2[C@H](NC(=O)[C@H](N)c3ccccc3)C(=O)N2[C@H]1C(=O)O [Ampicillin]	500			antinanobacterial effect in the in vitro test (in words) (nanobacteria [1]): weak bacteriostatic effect
Polymyxin B				MIC 50 (nanobacteria [1]; 50% inhibition, 12 day time point, DMEM with 10% gamma-irradiated FBS): >500 mg/L
O=C(O)CN(CCOCCOCCN(CC(=O)O)CC(=O)O)CC(=O)O [EGTA]				antinanobacterial effect in the in vitro test (in words) (nanobacteria [1]): antinanobacterial effects
O=CCCCC=O [2% glutaraldehyde, glutaraldehyde]		+++	+++	
O=C1O[C@H]([C@@H](O)CO)C(O)=C1O [ascorbic acid]				pIC50 (nanobacteria [1]; [3]): 1.30 to 2.00
CC[C@@H](CO)NCCN[C@@H](CC)CO [Ethambutol]	> 500			
CCO [70% ethanol, ethanol]		+++	+++	
CCCCCCCC/C=C\CCCCCCCC(=O)OCCOCC(OCCO)C1OCC(OCCO)C1OCCO (centres unmarked) [1 % Tween 80, Tween 80]		+++	+++	
C=O [4% formaldehyde, formaldehyde]		+++	+++	
CCC[C@@H]1C[C@@H](C(=O)N[C@@H]([C@H]2O[C@H](SC)[C@H](O)[C@@H](O)[C@H]2O)[C@@H](C)O)N(C)C1 [Lincomycin]	> 500			
hydrogen peroxide [3% H2O2]		+++	+++	
